No end group written: not given here.
Experiments:
[1] = test system: L. lactis ATCC 19257; conditions: ref Acedo et al., 2016; cited from earlier work
Description: (§1) For comparison, previous studies have shown that pallidocin, a glycocin-type bacteriocin produced by thermophilic bacteria A. pallidus strain 8, was active in the pM range against other thermophiles, and a 2.4 pM concentration of pallidocin inhibited the growth of thermophilic bacterium P. genomospecies 1 strain NUB36187 ([Kaunietis et al., 2019]). Other leaderless bacteriocins are active in the μM and nM ranges ([Fujita et al., 2007]; [Iwatani et al., 2007]) and have a broad spectrum of activity.

[2] = test system: B. campestris ATCC 43754; conditions: ref Acedo et al., 2016; cited from earlier work
Description: as §1

[3] = Bacteriocin stability in different pH ranges (activity by spot on a lawn assay after incubation); assay type: physicochemical; conditions: pH range 3–11, 25 mM Britton-Robinson buffer, 1:20, room temperature 2 h, neutralized to pH 7; spot on a lawn read-out
Experimental: For evaluation of stability at different pH ranges, purified recombinant Geo6 was mixed with 25 mM Britton-Robinson buffer solutions ([Ebihara et al., 2016]) with different pH values in a ratio of 1:20. After incubation at room temperature for 2 h samples were neutralized with NaOH or HCl solutions to pH 7. Further, samples were diluted two-fold using a medium and assessed for antibacterial activity using spot on a lawn assay.

[4] = test system: G. kaustophilus HTA 426^T; test: Live/dead assay (membrane integrity, SYTO9 and PI); assay type: cell-based, Geobacillus kaustophilus; conditions: 600 nM Geo6, 30 min, BHI, 55°C; fluorescence microscopy; red = damaged membrane
Experimental: An indicator strain G. kaustophilus HTA 426^T sensitive to bacteriocin was grown in BHI medium at 55°C till OD 0.5 was reached. Next, the bacteria culture was treated with 600 nM of Geo6 and further cultivated for 30 min. Then, the cell culture was centrifuged at 3000 ×g for 5 min and further washed two times with 0.9% NaCl solution (centrifuged at 3000 ×g for 5 min). After the last wash, cells were suspended in 0.9% NaCl solution and stained using LIVE/DEAD BacLight Bacterial Viability Kit (Invitrogen) containing SYTO9 and […] according to manufacturers’ recommendations. Cells were incubated in the dark at room temperature for 15 min. Next, cells were centrifuged at 3000 ×g for 5 min and washed two times with 0.9% NaCl solution (centrifuged at 3000 ×g for 5 min). Further, 10 μl of Geo6 treated cells and nontreated control cells suspensions were spotted onto objective slides and examined using a fluorescence microscope using filters FITC (480/500 nm) and Texas Red (490/635 nm).

[5] = Thermal shift assay (differential scanning fluorimetry, SYPRO Orange); assay type: physicochemical; conditions: DSF, called inconclusive; for Melting temperature (Tm): 20–95°C, triplicate
Experimental: As an indicator of thermal denaturation in varying pH or other conditions a fluorescent SYPRO Orange dye (Invitrogen) that binds to hydrophobic parts of protein during its unfolding was used in this work. SYPRO Orange 50× stock solution was prepared by diluting 2.5 μl of 5,000× concentrate into 250 μl of deionized (DI) water. A volume of 2.5 μl of 50× SYPRO Orange was aliquoted into a white HardShell 96-well PCR plate (Bio-Rad). Different pH buffer solutions (25 mM Briton-Robinson, pH 3–11; [Bendikienė et al., 2004]) were added to aliquoted SYPRO Orange followed by adding an appropriately diluted solution of purified Geo6 into the wells at a final concentration of 0.25 nmol/ml (1.3 μg/ml). The final volume of the mixture was 25 μl. The negative control was 25 mM of Briton-Robinson buffer solutions in a range of pH 3 to 11, with 2.5 μl of SYPRO Orange. Lysozyme (final concentration of 100 μg/ml) diluted in 25 mM Briton-Robinson buffer (pH 5 and 6) and mixed with 2.5 μl of SYPRO Orange was used as a positive control. A curve experiment for DNA with the elimination of the initial denaturation step at 95°C was used. The melt curve temperature range was set from 20°C to 95°C in increments of 0.5°C for 5 s. Each experimental condition was prepared in triplicate. Thermal shift analysis or differential scanning fluorimetry (DSF) of Geo6 was performed in CFX Touch Real TIME PCR System (Bio-Rad) using CFX Manager (Bio-Rad) software.

[6] = test system: Geobacillus thermodenitrificans DSM 465^T; assay type: cell-based
Experimental: (§2) MICs of Geo6 were determined according to the method of [Wiegand et al. (2008)] with some modifications. An indicator strain sensitive to bacteriocin was grown overnight at 55°C in a thermoshaker. The next day it was inoculated (2–3%) into fresh medium and cultivated until OD reached 1–1.5. The culture was further diluted and adjusted to 1 × 10^6 CFU/ml. A 95 μl of the medium was mixed with 5 μl of Geo6 and serial two-fold dilutions of suspension were made with the medium. Next, diluted mixtures were dispersed (100 μl) in a 96-well plate. A volume of 100 μl of previously prepared cell suspension was dispersed and mixed with the diluted bacteriocin in every well on the plate. As a result, the final volume of suspension in the well containing diluted bacteriocin and bacteria cells was 200 μl and the final concentration of the bacteria culture in the well was 5 × 10^5 CFU/ml. For each experiment, three replicates were made in the plate. Wells with positive controls contained a mixture of medium (95 μl) and Geo6 (5 μl), and negative controls contained bacteria suspension (5 × 10^5 CFU/ml) in the medium (100 μl). The plate was placed into a bag to prevent medium evaporation and put into a box, which was incubated overnight at 55°C in a thermoshaker. The next day, the growth inhibition was evaluated in the wells of the plate.

[7] = test system: Parageobacillus toebii DSM 14590^T; assay type: cell-based
Experimental: as §2

[8] = test system: Geobacillus kaustophilus HTA 426; assay type: cell-based
Experimental: as §2

[9] = test system: Geobacillus thermoleovorans DSM 5366^T; assay type: cell-based
Experimental: as §2

[10] = test system: Geobacillus lituanicus DSM 15325^T; assay type: cell-based
Experimental: as §2

[11] = Bacteriocin thermostability (activity by spot on a lawn assay after incubation); assay type: physicochemical; conditions: spot on a lawn read-out; for Antibacterial activity retained after heat treatment: two-fold dilutions
Experimental: […] After incubation, serial two-fold dilutions of samples were made using medium, and further antibacterial activity of bacteriocin was assessed by spot on a lawn assay.

[12] = CD spectroscopy, aqueous buffers; reversible two-state conversion between helical and unfolded forms; ref Hammond et al., 2020; cited from earlier work
Description: A recent study using the CD spectroscopy method confirmed the formation of helical structures in epidermicin NI01 and aureocin A53 in aqueous buffers. […] Due to these interesting findings, we decided to employ a thermal shift assay, also known as differential scanning fluorimetry (DSF), to analyze the thermal denaturation of Geo6 under different pH ranges and temperatures. Additionally, to the best of our knowledge, this ...

[13] = test system: B. coagulans JCM 2257^T; conditions: ref Iwatani et al., 2007; cited from earlier work
Description: as §1

[14] = test system: P. dextrinicus JCM 5887^T; conditions: ref Iwatani et al., 2007; cited from earlier work
Description: as §1

[15] = test system: Escherichia coli JM109; conditions: ref Iwatani et al., 2007; cited from earlier work
Description: as §1

[16] = test system: L. sakei subsp. sakei JCM 1157^T; conditions: ref Iwatani et al., 2007; cited from earlier work
Description: as §1

[17] = test system: P. genomospecies 1 strain NUB36187; conditions: thermophilic bacterium; ref Kaunietis et al., 2019; cited from earlier work
Description: as §1

aureocin A54 (MSWLNFLKYIAKYGKKAVSAAWKYKGKVLEWLNVGPTLEWVWQKLKKIAGL; UniProt Q8GPI4 1-51, looked up)
MIC [1]: 0.25 µM
MIC [2]: 2 µM

GMATFLRIVAQLSSKAAKWALDNKDKVLKWIRDGMAIDWIIDKINDIVG [Geo6, geobacillin 6]
Antibacterial activity retained after incubation at different pH [3]: 100%
Membrane integrity (SYTO9/PI fluorescence of treated cells) [4]: all the cells exhibited red fluorescence
Melting temperature (Tm) ([5]; 25 mM Briton-Robinson buffer pH 8, 0.25 nmol/ml (1.3 μg/ml)): none
Melting temperature (Tm) ([5]; 25 mM Briton-Robinson buffer pH 9, 0.25 nmol/ml (1.3 μg/ml)): 76.75±1.77 °C
Melting temperature (Tm) ([5]; 25 mM Briton-Robinson buffer pH 10, 0.25 nmol/ml (1.3 μg/ml)): 76.5 °C
Melting temperature (Tm) ([5]; 25 mM Briton-Robinson buffer pH 11, 0.25 nmol/ml (1.3 μg/ml)): 80.5±0.7 °C
Melting temperatures (Tm), partial unfolding ([5]; range of pH 9–11, 20–95°C): 76.5–80.5 °C
MIC [6]: 2.34 µM
MIC [7]: 4.45 µM
MIC [8]: 0.293 µM
MIC [9]: 0.585 µM
MIC [10]: 0.585 µM
Antibacterial activity retained after heat treatment ([11]; 60°C for 2 h): 100%
Antibacterial activity retained after heat treatment ([11]; 70°C for 2 h): 100%
Antibacterial activity retained after heat treatment ([11]; 95°C for 6 h): did not abolish its activity
Antibacterial activity retained after heat treatment ([11]; 95°C for 6 h, listed as Geobacillin 6): 100%
Antibacterial activity retained after heat treatment ([11]; 100°C for 2 h): 100%
Antibacterial activity retained after incubation at room temperature ([11]; room temperature for 24 h): 100%

epidermicin NI01
Denaturation temperature [12]: 60 °C

lacticin Q
MIC [13]: 0.0016 µM
MIC [14]: 0.0073 µM
Antibacterial activity [15]: No activity was detected
MIC [16]: 0.0032 µM

pallidocin
Concentration that inhibited growth [17]: 2.4 pM
